Results taken from article PMC6934184, “Selective DNA-PKcs inhibition extends the therapeutic index of localized radiotherapy and chemotherapy” (The Journal of Clinical Investigation, 2019).

Molecular target: T1, CDK9 (Inactive) (Homo sapiens, UniProt P50750)
T1 construct: purchased Thermo Fisher Scientific (Life Technologies) SelectScreen
Assay: SelectScreen LanthaScreen
Type: binding
Conditions: read-out: % displacement
Summary of the method: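 Percent values come from Thermo SelectScreen profiling of NU5455, combining activity and binding assays. CSF1R was run in Z'LYTE format at Km app ATP, and CAMK1 in Adapta format with ATP listed at 10.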

T1 sequence (P50750 whole entry): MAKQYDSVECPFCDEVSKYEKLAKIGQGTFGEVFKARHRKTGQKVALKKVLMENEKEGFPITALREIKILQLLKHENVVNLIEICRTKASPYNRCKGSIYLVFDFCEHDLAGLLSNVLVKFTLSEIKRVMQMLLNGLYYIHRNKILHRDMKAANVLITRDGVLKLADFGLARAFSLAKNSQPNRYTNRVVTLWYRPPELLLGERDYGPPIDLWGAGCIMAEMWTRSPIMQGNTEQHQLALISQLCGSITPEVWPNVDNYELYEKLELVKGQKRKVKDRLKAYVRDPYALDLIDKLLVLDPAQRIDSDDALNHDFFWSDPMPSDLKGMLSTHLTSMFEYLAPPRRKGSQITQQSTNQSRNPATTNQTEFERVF

## CN(C(=O)CN1CCOCC1)c1ccc2sc3c(-c4cccc5c(=O)cc(N6CC7CCC(C6)O7)oc45)cccc3c2c1 [NU5455]
  inhibition at 1 µM: 9%
